Results published in the NIST ThermoML archive (doi:10.1016/j.jct.2013.03.004).
Numbers after ± are expanded uncertainties.

Settings: 101 kPa, Liquid mixture 1, Drop volume

## Cc1ccccc1 [toluene] + O
293.2 K
  interfacial tension: 37.2 ± 0.3 mN/m
298.2 K
  interfacial tension: 36.3 ± 0.3 mN/m
303.2 K
  interfacial tension: 35.7 ± 0.3 mN/m
308.2 K
  interfacial tension: 35.2 ± 0.3 mN/m
313.2 K
  interfacial tension: 34.7 ± 0.3 mN/m
